Data set [1] has as its system HIF-1. The experiment in a line: HIF-1 GFP/DsRFP expression (G/R) in C6#4 cells stimulated by CoCl2. Type of data set: cell-based.
For data set [2], the system named is C6#4 cells.

The structures appear in SMILES notation. “And” between values parts separate entries of the source, which are not always exact repeats. Equal values may be shown once. Read-outs that look alike come from different tables or passages of the source.

`c1ccc2c(-c3cnc4c(Nc5ccc6[nH]ccc6c5)nccn34)cccc2c1` [LG2-89]: the “G/R:WST-1 Ratio Mean” value in data set [1] was 1.4 and 1.383. The EC50 was found to be 27.9 µM in data set [1] (read-out: G/R (EC-50)); 13.7 µM in data set [1] (read-out: G/R (EC-50) 1 ex); 42.7 µM in data set [1] (read-out: G/R (EC-50) 2 ex); 27.2 µM in data set [1] (read-out: G/R (EC-50) 3 ex); 27.9 µM in data set [1] (read-out: G/R (REC-50) Mean); 35.4 µM in data set [2] (read-out: WST-1 (EC-50)). The EC50 in data set [2] (read-out: WST-1 (EC-50) 1 ex) worked out at 21.4 µM; in data set [2] (read-out: WST-1 (EC-50) 2 ex), 40.4 µM; in data set [2] (read-out: WST-1 (EC-50) 3 ex), 44.4 µM; in data set [2] (read-out: WST-1 (EC-50) Mean) it was 35.4 µM.
Regarding `COc1ccc(Nc2nccn3c(-c4cccc(C(N)=O)c4)cnc23)cc1` [LG2-13], the EC50 in data set [1] (read-out: EC 50 G/R) was 7.95 µM; in data set [1] (read-out: G/R (EC-50) 2 ex) it was 6.9 µM; in data set [1] (read-out: G/R (EC-50) 3 ex), 8.97 µM; in data set [2] (read-out: WST-1 (EC-50) 1 ex), 7.08 µM; in data set [2] (read-out: WST-1 (EC-50) 2 ex) it was 101 µM; in data set [2] (read-out: WST-1 (EC-50) 3 ex), 99.7 µM. Besides, the cytotoxicity entry in data set [2] is recorded as “doesn't have cytotoxicity”.
Take `CC(=O)c1cccc(-c2cnc3c(Nc4ccc(N5CCOCC5)cc4)nccn23)c1` [LG2-81]: in data set [1], the “G/R:WST-1 Ratio Mean” value was found to be 3.7. Further, the EC50 in data set [1] (read-out: G/R (EC-50)) is 10.5 µM; in data set [1] (read-out: G/R (EC-50) 1 ex) it was 8.66 µM; in data set [1] (read-out: G/R (EC-50) 2 ex) it was 12.2 µM; in data set [1] (read-out: G/R (EC-50) 3 ex), 10.5 µM; in data set [1] (read-out: G/R (REC-50) Mean), 10.5 µM; in data set [2] (read-out: WST-1 (EC-50)), 38.8 µM. Moreover, the EC50 in data set [2] (read-out: WST-1 (EC-50) 1 ex) was 32.2 µM; in data set [2] (read-out: WST-1 (EC-50) 2 ex), 40.2 µM; in data set [2] (read-out: WST-1 (EC-50) 3 ex) it was 43.9 µM; in data set [2] (read-out: WST-1 (EC-50) Mean) it was 38.8 µM.
On to `CC(C)c1ccc(Nc2nccn3c(-c4cccc(O)c4)cnc23)cc1` [LG2-65], for which the EC50 amounted to 9070 µM in data set [1] (C6#4 cells, experiment 1, read-out: G/R (EC-50) 1 ex); 3860 µM in data set [1] (C6#4 cells, experiment 2, read-out: G/R (EC-50) 2 ex); 5670 µM in data set [1] (C6#4 cells, experiment 3, read-out: G/R (EC-50) 3 ex); 56.4 µM in data set [2] (read-out: WST-1 (EC-50) 1 ex, C6#4 cells, experiment 1). Moreover, the “influence on C6#4 cells” value in data set [2] (concentration 200 μM) was “doesn't influence”.
Take `c1ccc(Oc2ccc(Nc3nccn4c(-c5ccc6[nH]ccc6c5)cnc34)cc2)cc1` [LG2-7]: the “G/R:WST-1 Ratio Mean” value in data set [1] was 5.6 and 5.633. Also, the EC50 in data set [1] (read-out: G/R (EC-50)) was determined as 9.1 µM; in data set [1] (read-out: G/R (EC-50) 1 ex), 14.2 µM; in data set [1] (read-out: G/R (EC-50) 2 ex), 9.34 µM; in data set [1] (read-out: G/R (EC-50) 3 ex) it was 3.89 µM; in data set [1] (read-out: G/R (REC-50) Mean) it was 9.15 µM; in data set [2] (read-out: WST-1 (EC-50)), 35.2 µM. Also, the EC50 in data set [2] (read-out: WST-1 (EC-50) 1 ex) turned out to be 23 µM; in data set [2] (read-out: WST-1 (EC-50) 2 ex), 39.9 µM; in data set [2] (read-out: WST-1 (EC-50) 3 ex), 42.7 µM; in data set [2] (read-out: WST-1 (EC-50) Mean), 35.2 µM.
Consider `COc1cccc(-c2cnc3c(Nc4ccccc4)nccn23)c1` [LG2-85], for which the “G/R:WST-1 Ratio Mean” value in data set [1] is 2.0 and 2.033. In addition, the EC50 was 23.5 µM in data set [1] (read-out: G/R (EC-50)); 23.9 µM in data set [1] (read-out: G/R (EC-50) 1 ex); 23.1 µM in data set [1] (read-out: G/R (EC-50) 2 ex); 23.5 µM in data set [1] (read-out: G/R (EC-50) 3 ex); 23.5 µM in data set [1] (read-out: G/R (REC-50) Mean); 48.1 µM in data set [2] (read-out: WST-1 (EC-50)). The EC50 in data set [2] (read-out: WST-1 (EC-50) 1 ex) came out at 34.8 µM; in data set [2] (read-out: WST-1 (EC-50) 2 ex) it was 41.6 µM; in data set [2] (read-out: WST-1 (EC-50) 3 ex), 67.9 µM; in data set [2] (read-out: WST-1 (EC-50) Mean) it was 48.1 µM.
For the molecule `COc1cc(-c2cnc3c(Nc4ccccc4)nccn23)ccc1O` [LG2-62], in data set [1], the “G/R:WST-1 Ratio Mean” value was 1.5 and 1.533. Moreover, the EC50 in data set [1] (read-out: G/R (EC-50)) was found to be 18.9 µM; in data set [1] (read-out: G/R (EC-50) 1 ex), 13.5 µM; in data set [1] (read-out: G/R (EC-50) 2 ex), 24.4 µM; in data set [1] (read-out: G/R (EC-50) 3 ex) it was 18.9 µM; in data set [1] (read-out: G/R (REC-50) Mean), 18.9 µM; in data set [2] (read-out: WST-1 (EC-50)), 30.1 µM. The EC50 in data set [2] (read-out: WST-1 (EC-50) 1 ex) is 19.5 µM; in data set [2] (read-out: WST-1 (EC-50) 2 ex), 43.9 µM; in data set [2] (read-out: WST-1 (EC-50) 3 ex), 27.1 µM; in data set [2] (read-out: WST-1 (EC-50) Mean), 30.1 µM.
As for `CN(C)CCNC(=O)c1ccc(-c2cnc3c(Nc4ccc(Oc5ccccc5)cc4)nccn23)cc1` [LG2-11], in data set [1], the “G/R:WST-1 Ratio Mean” value is 2.2 and 2.237. Also, the EC50 stood at 10.9 µM in data set [1] (read-out: G/R (EC-50) 1 ex); 15.7 µM in data set [1] (read-out: G/R (EC-50) 2 ex); 6.07 µM in data set [1] (read-out: G/R (EC-50) 3 ex); 19.6 µM in data set [2] (read-out: WST-1 (EC-50)); 18.1 µM in data set [2] (read-out: WST-1 (EC-50) 1 ex); 16.6 µM in data set [2] (read-out: WST-1 (EC-50) 2 ex). In addition, the EC50 in data set [2] (read-out: WST-1 (EC-50) 3 ex) was determined as 24.2 µM; in data set [2] (read-out: WST-1 (EC-50) Mean), 19.6 µM.
On to `COc1cc(Nc2nccn3c(-c4cccc(C(C)=O)c4)cnc23)cc(OC)c1OC` [LG2-75], for which the “G/R:WST-1 Ratio Mean” value in data set [1] is 1.2 and 1.233. Moreover, the EC50 amounted to 14.8 µM in data set [1] (read-out: G/R (EC-50)); 4.37 µM in data set [1] (read-out: G/R (EC-50) 1 ex); 16.3 µM in data set [1] (read-out: G/R (EC-50) 2 ex); 23.7 µM in data set [1] (read-out: G/R (EC-50) 3 ex); 14.8 µM in data set [1] (read-out: G/R (REC-50) Mean); 16.8 µM in data set [2] (read-out: WST-1 (EC-50)). For the same molecule, the EC50 in data set [2] (read-out: WST-1 (EC-50) 1 ex) stood at 7.04 µM; in data set [2] (read-out: WST-1 (EC-50) 2 ex), 16.4 µM; in data set [2] (read-out: WST-1 (EC-50) 3 ex) it was 26.8 µM; in data set [2] (read-out: WST-1 (EC-50) Mean), 16.8 µM.
With `O=C(NCCO)c1cccc(-c2cnc3c(NCc4cccs4)nccn23)c1` [LG2-98], the EC50 in data set [1] (C6#4 cells, 24 h exposure, GFP normalized to RFP, Table 2, read-out: G/R (EC-50)) is 20.4 µM.
As to `COc1cc(OC)cc(-c2cnc3c(NCC4CC4)nccn23)c1` [LG2-102], the EC50 in data set [1] (read-out: G/R (EC-50)) stood at 37.4 µM; in data set [2] (read-out: WST-1 (EC-50)), 52.7 µM.
